Experimental data from ChEMBL document CHEMBL1667840, “Chemical and biological explorations of the electrophilic reactivity of the bioactive marine natural product halenaquinone with biomimetic nucleophiles” (Bioorg Med Chem Lett, 2011).

Tests used:
Phospholipase A2 = target: T1, Phospholipase A2 (Apis mellifera, UniProt P00630); assay: Inhibition of bee venom phospholipase A2 after 5 mins by spectrophotometric analysis
T1 sequence (P00630 whole entry): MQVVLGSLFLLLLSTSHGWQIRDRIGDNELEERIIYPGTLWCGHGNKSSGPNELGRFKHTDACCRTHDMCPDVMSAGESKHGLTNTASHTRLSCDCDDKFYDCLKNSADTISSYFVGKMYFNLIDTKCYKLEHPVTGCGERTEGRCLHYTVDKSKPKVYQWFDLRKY

[1] = Inhibition of Saccharomyces cerevisiae FTase after 15 mins by fluorimetric analysis
[2] = target: Protein farnesyltransferase (Homo sapiens, UniProt P49354+P49356); assay: Inhibition of human FTase after 15 mins by fluorimetric analysis; format: protein-complex assay
Plasmodium falciparum [3] = assay: Antiplasmodial activity against chloroquine-resistant Plasmodium falciparum FcB1 after 48 hrs; format: functional, organism-based; details: FcB1/Columbia
Plasmodium falciparum [4] = assay: Antiplasmodial activity against chloroquine-sensitive Plasmodium falciparum 3D7 after 48 hrs; format: functional, organism-based; details: 3D7, 48 h
Vero = assay: Cytotoxicity against african green monkey Vero cells assessed as inhibition of [3H]hypoxanthine incorporation after 48 hrs; format: cell-based; details: Chlorocebus sabaeus

SMILES | IC50 (Phospholipase A2) [µM] | IC50 [1] [nM] | IC50 [2] [nM] | IC50 (Plasmodium falciparum [3]) [µM] | IC50 (Plasmodium falciparum [4]) [µM] | IC50 (Vero) [µM]
C[C@@]12CCC(=O)/C(=C\NCCc3ccccc3)C1=C(O)C(=O)c1cc3c(cc12)C(=O)C=CC3=O | 17.7 | 310 | 440 | 8.8 | 2.1 | 4.7
CCCCCN/C=C1\C(=O)CC[C@]2(C)C1=C(O)C(=O)c1cc3c(cc12)C(=O)C=CC3=O | 23.9 | 41 | 57 | 9.2 | 7.4 | 6.3
CC(C)(C)OC(=O)NCCN/C=C1\C(=O)CC[C@]2(C)C1=C(O)C(=O)c1cc3c(cc12)C(=O)C=CC3=O | 12.8 |  |  | 52.8 |  | 7.4
CC(C)=CCC/C(C)=C/CN/C=C1\C(=O)CC[C@]2(C)C1=C(O)C(=O)c1cc3c(cc12)C(=O)C=CC3=O | 34.4 | 17 | 31 | 0.62 | 0.53 | 8.6
COC(=O)CN/C=C1\C(=O)CC[C@]2(C)C1=C(O)C(=O)c1cc3c(cc12)C(=O)C=CC3=O | 76.8 |  |  | 55.8 | 16.5 | 13.4
C[C@@]12CCC(=O)c3coc(c31)C(=O)c1cc3c(cc12)C(=O)C=CC3=O [HELENAQUINONE] |  | 1600 |  | > 30 | 30 | > 60
CC1=CCCC2(C)C1=C(O)C(=O)c1cc3c(cc12)C(=O)C=CC3=O (stereo unspecified) [ORHALQUINONE] |  | 400 |  |  |  | > 62
